Measurements: patent publication US8058309B2, “Protein kinase modulators and therapeutic uses thereof” (Novotyr Therapeutics Ltd., priority 2006, dated 2011)
Entries after “also recorded” stand apart in the source; their conditions may differ.

Legend:
IGF1R [1] = biological target: T1, IGF1R (Homo sapiens, UniProt P08069); assay: Inhibition of IGF1-induced signaling in intact MCF7 cells (western blot); assay type: cell-based; settings: 4 h exposure, IGF1 stimulation
T1 construct: made in house
Protocol: (§1) Tyrosine autophosphorylation of the β-subunit of IGF1R as well as downstream signaling induced by IGF1R were assayed in breast cancer MCF7 cells. Tyrosine autophosphorylation of the EGFR and the EGFR signaling was assayed in prostate cancer PC3 cells. Tyrosine autophosphorylation of the PDGFR and its signaling was assayed in fibroblasts overexpres sing PDGFR. Tyro sine autophosphorylation of the IR and its signaling was assayed in fibroblasts overexpressing IR. Cells were seeded in 6-well plates (MCF7-250,000 cells/well, PC3-150,000 cells/well, fibroblasts-140,000 cells/well) and 24 hours later medium was replaced by serum-free medium (DMEM supplemented with 100 units/ml penicillin and 100 μg/ml streptomycin). Following 20 hours of serum-starvation medium was replaced with medium containing various concentrations of the inhibitors in 0.1% DMSO for additional 4 hours. Cells were then stimulated for 5 min with 50 ng/ml IGF-1 (MCF7 cells), 20 ng/ml EGF (PC3 cells), 50 ng/ml PDGF (fibroblasts overexpressing PDGFR) or 100 nM insulin (fibroblasts overexpressing IR), washed twice with PBS and lysed by boiling sample buffer (10% glycerol, 50 mM Tris-HCl, pH 6.8, 3% SDS, and 5%, β-mercaptoethanol). Equal amounts of protein per lane were separated by 8% SDS-PAGE and transferred to a nitrocellulose membrane (Sartorius AG). Phosphorylated proteins were immunoblotted with anti-phospho-IGF1R (phosphor-IGF1R), anti-phosphotyrosine-IRS1 (phospho-IRS1), anti-phospho(T308)Akt (phospho-PKB), anti-phospho-Erk (phospho-ERK), anti-phosphotyrosine 4G10&PY20 (pY-EGFR or pY-PDGFR), anti-phospho-Ser^636/639-IRS1 (pS^636/639-IRS1) and anti-phospho-STAT3 (phospho-STAT3) antibodies. Detection was performed with horseradish peroxidase-conjugated secondary antibody using the ECL system. Blots were then stripped of antibodies, blocked with TBST with 5% low fat milk and re-probed with antibodies detecting both the phosphorylated and the non-phosphorylated corresponding proteins e.g. IGF1Rβ, IRS1, PKB, ERK, IRβ, PDGFR and Stat3.

IRS1 [2] = assay: IRS1 Ser-phosphorylation and IRS1 levels in MCF7 cells; assay type: cell-based; settings: breast cancer MCF7 cells
Protocol: as §1
(§2) In addition, lysates were prepared from cells exposed to inhibitors at various concentrations for 24 hours in the presence or the absence of FCS without stimulation. Lysate preparation and western blot were the same as described above. Apoptosis was detected by immunoblotting with rabbit anti-PARP antibodies.

[3] = system: metastatic melanoma YUMAC cells; assay: Apoptosis (cleaved PARP) in YUMAC cells; assay type: cell-based, human; settings: 24 hours of exposure, 3 μM
Protocol: as §2

IRS1 [4] = assay: IRS1 Ser-phosphorylation in YUMAC cells; assay type: cell-based, human; settings: metastatic melanoma YUMAC cells
Protocol: as §2

YURIF = assay: Proliferation assay YURIF; assay type: cell-based; settings: Homo sapiens; Table 4; 72 hours incubation; read-out: Inhibition of human metastatic melanoma cells, YURIF IC50
Protocol: (§3) Various cancer cell lines (listed in table 1) were plated at a density of 1000-5000 cells/well in 96-well plates in 90111 growth medium containing 10% FCS, 100 units/ml penicillin and 100 μg/ml streptomycin. Inhibitors were added a day later in 10 μl of 1% DMSO in DDW to obtain final concentrations of 0, 0.1, 0.3, 1, 3, and 10 μM. The final concentration of DMSO (0.1% DMSO) was kept constant in all samples. Medium with inhibitors was refreshed a day and two days later. Following exposure of the cells to the inhibitors for 72 hours at 37° C., the cells were fixed in 0.5% gluteraldehyde in medium for 10 min, washed three times with DDW, once with 0.1M sodium borate buffer pH 8.5 and stained with 1% methylene blue dissolved in 0.1M borate buffer solution for 60 min. Excess dye was washed out and cell-bound dye was eluted with 200 μl/well of 0.1 M HCl. The optical density value was read at 620 nm in ELISA plate reader. The data was analyzed in Microsoft Excel, using the vehicle control as 100% proliferation. The assays were performed in triplicates. The values in table 1 represent IC50 values derived from the dose-dependent growth curves obtained.
(§4) Compounds 6, 7, 8, and 9 were tested for their inhibitory potential in cell proliferation assay. In this assay cells were exposed to increasing concentrations of the molecules (at 0.1% DMSO in all wells) a day after seeding. Medium and inhibitors were refreshed every day, and following three days of treatment, cells were fixed and stained with methylene-Blue. IC50 values were determined from the curves of the optical density against compound concentration. The assay was performed in triplicates.

YUMAC = assay: Proliferation assay YUMAC; assay type: cell-based; settings: Homo sapiens; Table 4; 72 hours incubation; read-out: Inhibition of human metastatic melanoma cells, YUMAC IC50
Protocol: as §3, §4

IGF1R [5] = biological target: T1, IGF1R; assay: IGF1R cellular free kinase assay (pGT substrate phosphorylation); assay type: biochemical; settings: partially purified IGF1R; 20 μM ATP; read-out: IC50 values of IGF1R activity in cellular free kinase assay
Protocol: The general protein-tyrosine kinase substrate, poly(Glu,Tyr) 4:1 (pGT), was coated onto a 96-well Maxisorp plates (Nunc) by adding 125 μl of 0.1 mg/ml pGT in PBS to each well. Plates were sealed and incubated for 16 hours at 37° C., washed once with TBST (10 mM Tris-HCl, pH 7.5, 50 mM NaCl, and 0.1% Triton X-100) and once with DDW, dried for 2-3 hours, and stored at 4° C. […] The plate was then washed with TBS with 0.2% Tween 20 (TBST) and blocked with 0.5% BSA in TBST. Mouse monoclonal anti-phosphotyrosine antibody, conjugated to Horse radish peroxidase (PT-66, 1:50000) was added to the plate. Following incubation for 45 min at room temperature, the plate was washed repeatedly with TBST. Detection was carried out with a color reagent, 2,2′-azido-bis-3-ethylbenzithiazoline-6-sulfonic acid, in citrate-phosphate buffer, pH 4.0, with 0.004% H2O2 for 10 min and monitored at 405 nm, all at room temperature. IC50 values of inhibitors were calculated using the REGRESSION program. The assay was optimized with respect to the amount of IGF-1R (partially purified from cells overexpressing IGF1R), reaction time, and ATP concentration. The signal was linear for 30 min in the range of IGF1R protein concentrations up to 35 ng/well.

T1 sequence (P08069 31-1367, species assumed): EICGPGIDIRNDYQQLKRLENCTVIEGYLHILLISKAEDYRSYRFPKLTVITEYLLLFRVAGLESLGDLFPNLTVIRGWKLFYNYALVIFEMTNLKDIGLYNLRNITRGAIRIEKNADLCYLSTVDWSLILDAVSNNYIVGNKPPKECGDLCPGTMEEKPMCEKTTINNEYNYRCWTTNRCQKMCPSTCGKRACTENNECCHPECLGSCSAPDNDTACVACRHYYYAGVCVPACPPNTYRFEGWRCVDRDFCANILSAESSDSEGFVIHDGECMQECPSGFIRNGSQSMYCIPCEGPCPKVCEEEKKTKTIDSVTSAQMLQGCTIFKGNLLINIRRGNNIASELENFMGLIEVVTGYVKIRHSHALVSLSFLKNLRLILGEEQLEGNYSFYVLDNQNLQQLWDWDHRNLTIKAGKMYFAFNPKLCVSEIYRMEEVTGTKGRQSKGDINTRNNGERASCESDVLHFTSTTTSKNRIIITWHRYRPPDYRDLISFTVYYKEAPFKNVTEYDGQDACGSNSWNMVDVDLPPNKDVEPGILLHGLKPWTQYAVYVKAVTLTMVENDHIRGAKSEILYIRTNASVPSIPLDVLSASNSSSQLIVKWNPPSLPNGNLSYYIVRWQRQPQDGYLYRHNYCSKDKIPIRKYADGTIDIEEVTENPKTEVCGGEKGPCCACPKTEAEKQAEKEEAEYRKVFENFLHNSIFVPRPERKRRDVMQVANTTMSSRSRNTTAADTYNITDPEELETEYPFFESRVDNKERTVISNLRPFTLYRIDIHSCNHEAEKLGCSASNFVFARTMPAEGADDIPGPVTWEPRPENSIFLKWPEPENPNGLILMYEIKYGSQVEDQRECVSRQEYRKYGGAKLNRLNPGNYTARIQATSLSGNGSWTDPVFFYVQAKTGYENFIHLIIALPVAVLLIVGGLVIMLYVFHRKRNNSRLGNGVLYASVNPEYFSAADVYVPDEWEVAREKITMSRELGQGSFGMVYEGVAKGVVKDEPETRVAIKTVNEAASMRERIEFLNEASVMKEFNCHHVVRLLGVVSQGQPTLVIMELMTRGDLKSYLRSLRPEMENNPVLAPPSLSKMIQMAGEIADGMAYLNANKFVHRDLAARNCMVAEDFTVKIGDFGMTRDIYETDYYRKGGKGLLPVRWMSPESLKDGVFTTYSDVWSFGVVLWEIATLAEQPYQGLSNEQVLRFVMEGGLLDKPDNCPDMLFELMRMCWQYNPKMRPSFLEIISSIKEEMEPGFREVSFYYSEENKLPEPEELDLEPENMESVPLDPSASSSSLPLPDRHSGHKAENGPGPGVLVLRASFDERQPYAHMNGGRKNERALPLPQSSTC

Inhibition of IGF1R autophosphorylation and IGF1-induced signaling (IRS1 pTyr, Akt/PKB, MAPK/ERK) (IGF1R [1])	IC50 (IGF1R [5]) [nM]	SMILES	IRS1 Ser-phosphorylation (IRS1 [2])	Cleavage of PARP (apoptosis) [3]	IRS1 Ser-phosphorylation (IRS1 [4])	IC50 (YURIF) [nM]	IC50 (YUMAC) [nM]
had no effect on the signaling		N#C/C(=C\c1ccc2oc(=S)[nH]c2c1)C(=O)c1ccc(O)c(O)c1 [Compound 20, reference compound]					
	68	N#C/C(=C\c1cc(O)c(O)c(C(F)(F)F)c1)C(=S)NCc1cc(O)c(O)c(O)c1 [Compound 13]	trigger IRS1-ser phosphorylation	detected	trigger IRS1-ser phosphorylation; also recorded: detected	870	1000
	30 to 200	N#C/C(=C\c1cc(O)c(O)c(Cl)c1)C(=S)NCc1cc(O)c(O)c(O)c1 [Compound 11]	trigger IRS1-ser phosphorylation		trigger IRS1-ser phosphorylation	1200	1200
	169	N#C/C(=C\c1cc(O)c(O)c(F)c1)C(=S)NCc1cc(O)c(O)c(O)c1 [Compound 12]					
	33	Oc1cc(CNC(=S)/C=C/c2cc(O)c(O)c(I)c2)cc(O)c1O [Compound 10]	trigger IRS1-ser phosphorylation	detected	trigger IRS1-ser phosphorylation; also recorded: detected	470	300
	700	N#C/C(=C\c1cccc(Br)c1)C(=S)NCc1cc(O)c(O)c(O)c1 [Compound 19]				> 10000	~10000
	196	Oc1cc(/C=C/C(=S)NCc2cc(O)c(O)c(Br)c2)cc(Br)c1O [Compound 18]					
	49	N#C/C(=C\c1cc(O)c(O)c(O)c1)C(=S)NCc1cc(O)c(O)c(Br)c1 [Compound 17]				> 10000	> 10000
	193	N#C/C(=C\c1cc(O)c(O)c(I)c1)C(=S)NCc1ccc(O)c(O)c1 [Compound 16]					
	115	N#C/C(=C\c1cc(O)c(O)c(Br)c1)C(=S)NCc1ccc(O)c(O)c1 [Compound 15]					
